Each structure is given as a SMILES string.

The target in this assay is T1, HIV-1 integrase (HIV-1 M:B_HXB2R, UniProt P04585).
T1 construct: gene gag-pol; WT integrase, cut from Gag-Pol polyprotein
In words: ELISA overall integration assay, biotin / digoxigenin labelled oligonucleotides. The note with it: overall integration reaction; 10 mM MgCl2, 5 mM DTT, 20 mM HEPES pH 7.5, 5% PEG, 15% DMSO, 37 °C, 1 h. It is filed as biochemical. An excerpt: ELISA overall integration assay, biotin / digoxigenin labelled oligonucleotides on HIV-1 integrase
In general terms: In an ELISA, binding on a coated surface is turned into a signal by an enzyme label.
With `Cc1cc(C)nc(NS(=O)(=O)c2ccc(N=C3C(=O)N(C(=O)c4ccccc4)c4ccc(Br)cc43)cc2)n1` [SPIII-5Br-BZ], the “IC50 ^a (μM/ml)” value is greater than 250 μM/ml.

Consider `CC(=O)N1C(=O)C(=Nc2ccc(S(=O)(=O)Nc3nc(C)cc(C)n3)cc2)c2cc(Br)ccc21` [SPIII-5Br-AC], for which the “IC50 ^a (μM/ml)” value was greater than 250 μM/ml.

On to `CC(=O)N1C(=O)C(=Nc2ccc(S(=O)(=O)Nc3nc(C)cc(C)n3)cc2)c2cc(C)ccc21` [SPIII-5Me-AC, 4-(1-acetyl-5-methyl-2-oxoindolin-3-ylideneamino)-N-(4,6-dimethylpyrimidin-2-yl)benzenesulfonamide], for which the “IC50 ^a (μM/ml)” value is 53.62±11.67 μM/ml.
